Measured values published in PubChem BioAssay (NCI).
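How tested: cells in 96-well plates exposed to compound for 48 hours at five concentrations. Definition used: TGI = concentration required for complete inhibition of growth.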

Assays:
Experiment in all cases: NCI anticancer screen, dose series, 48 h
PC-3 prostate = test system: PC-3 prostate
MALME-3M melanoma = test system: MALME-3M melanoma
DU-145 prostate = test system: DU-145 prostate
CAKI-1 renal = test system: CAKI-1 renal
OVCAR-4 ovarian = test system: OVCAR-4 ovarian
OVCAR-3 ovarian = test system: OVCAR-3 ovarian
SF-295 CNS = test system: SF-295 CNS
LOX IMVI melanoma = test system: LOX IMVI melanoma
NCI/ADR-RES ovarian = test system: NCI/ADR-RES ovarian
RPMI-8226 leukemia = test system: RPMI-8226 leukemia
SK-MEL-28 melanoma = test system: SK-MEL-28 melanoma
HCC-2998 colon = test system: HCC-2998 colon
OVCAR-8 ovarian = test system: OVCAR-8 ovarian
ACHN renal = test system: ACHN renal
SR leukemia = test system: SR leukemia

COC(=O)[C@]12CC3C=CC1N(C3)C(CBr)c1c2n(S(=O)(=O)c2ccccc2)c2ccccc12 (stereo partly drawn)
TGI (PC-3 prostate): > 100 µM
TGI (MALME-3M melanoma): > 100 µM
TGI (DU-145 prostate): > 100 µM
TGI (CAKI-1 renal): > 100 µM
TGI (OVCAR-4 ovarian): > 100 µM
TGI (OVCAR-3 ovarian): > 100 µM
TGI (SF-295 CNS): > 100 µM
TGI (LOX IMVI melanoma): > 100 µM
TGI (NCI/ADR-RES ovarian): > 100 µM
TGI (RPMI-8226 leukemia): 23.5 µM
TGI (SK-MEL-28 melanoma): > 100 µM
TGI (HCC-2998 colon): > 100 µM
TGI (OVCAR-8 ovarian): > 100 µM
TGI (ACHN renal): > 100 µM

C=CC(=O)Nc1ccc(NC(=O)C=C)c2c1C(=O)c1ccccc1C2=O
TGI (PC-3 prostate): > 100 µM
TGI (MALME-3M melanoma): > 100 µM
TGI (OVCAR-3 ovarian): > 100 µM
TGI (SF-295 CNS): 49.8 µM
TGI (LOX IMVI melanoma): 47.4 µM
TGI (NCI/ADR-RES ovarian): > 100 µM
TGI (RPMI-8226 leukemia): 21.2 µM
TGI (SR leukemia): > 100 µM
TGI (SK-MEL-28 melanoma): > 100 µM
TGI (HCC-2998 colon): > 100 µM
TGI (OVCAR-8 ovarian): > 100 µM
TGI (ACHN renal): > 100 µM

O=c1nc2n3c4c(cccc4nc-2c(=O)[nH]1)CCC3
TGI (PC-3 prostate): > 100 µM
TGI (MALME-3M melanoma): 39.2 µM
TGI (DU-145 prostate): > 100 µM
TGI (CAKI-1 renal): > 100 µM
TGI (OVCAR-4 ovarian): > 100 µM
TGI (OVCAR-3 ovarian): > 100 µM
TGI (SF-295 CNS): > 100 µM
TGI (LOX IMVI melanoma): > 100 µM
TGI (NCI/ADR-RES ovarian): > 100 µM
TGI (RPMI-8226 leukemia): > 100 µM
TGI (SK-MEL-28 melanoma): > 100 µM
TGI (HCC-2998 colon): > 100 µM
TGI (OVCAR-8 ovarian): > 100 µM
TGI (ACHN renal): > 100 µM

OC12c3ccccc3C1CCCCC2N1CCCC1 (stereo not drawn)
TGI (MALME-3M melanoma): > 100 µM
TGI (OVCAR-4 ovarian): > 100 µM
TGI (SF-295 CNS): > 100 µM
TGI (LOX IMVI melanoma): > 100 µM
TGI (RPMI-8226 leukemia): > 100 µM
TGI (SR leukemia): > 100 µM
TGI (SK-MEL-28 melanoma): > 100 µM
TGI (OVCAR-8 ovarian): > 100 µM
TGI (ACHN renal): > 100 µM

CN1C(=O)C2(C)SC1(c1ccccc1)C1C(=O)N(c3ccccc3)C(=O)C12 (stereo not drawn)
TGI (PC-3 prostate): > 100 µM
TGI (MALME-3M melanoma): > 100 µM
TGI (DU-145 prostate): > 100 µM
TGI (CAKI-1 renal): > 100 µM
TGI (OVCAR-4 ovarian): > 100 µM
TGI (OVCAR-3 ovarian): > 100 µM
TGI (SF-295 CNS): > 100 µM
TGI (LOX IMVI melanoma): > 100 µM
TGI (NCI/ADR-RES ovarian): > 100 µM
TGI (RPMI-8226 leukemia): > 100 µM
TGI (SR leukemia): > 100 µM
TGI (SK-MEL-28 melanoma): > 100 µM
TGI (OVCAR-8 ovarian): > 100 µM
TGI (ACHN renal): > 100 µM

CC(/C=C/C(=O)NO)=C\C(C)C(=O)c1ccc(N(C)C)cc1 (stereo not drawn)
TGI (PC-3 prostate): 10.7 µM
TGI (MALME-3M melanoma): 0.0239 µM
TGI (DU-145 prostate): 0.0792 µM
TGI (CAKI-1 renal): 0.0863 µM
TGI (OVCAR-4 ovarian): 16.8 µM
TGI (SF-295 CNS): 0.454 µM
TGI (RPMI-8226 leukemia): 74.1 µM
TGI (SK-MEL-28 melanoma): 14.8 µM
TGI (HCC-2998 colon): < 0.0113 µM
TGI (OVCAR-8 ovarian): 41.6 µM
TGI (ACHN renal): 0.0942 µM

COc1ccc(CNc2cnc3cc(N)ccc3n2)cc1
TGI (MALME-3M melanoma): > 100 µM
TGI (OVCAR-4 ovarian): > 100 µM
TGI (OVCAR-3 ovarian): > 100 µM
TGI (SF-295 CNS): > 100 µM
TGI (LOX IMVI melanoma): > 100 µM
TGI (RPMI-8226 leukemia): > 100 µM
TGI (SR leukemia): > 100 µM
TGI (SK-MEL-28 melanoma): > 100 µM
TGI (HCC-2998 colon): > 100 µM
TGI (OVCAR-8 ovarian): > 100 µM
TGI (ACHN renal): > 100 µM

CSc1ncnc2c1ncn2CCC(=O)O
TGI (PC-3 prostate): > 100 µM
TGI (MALME-3M melanoma): > 100 µM
TGI (DU-145 prostate): > 100 µM
TGI (CAKI-1 renal): > 100 µM
TGI (OVCAR-4 ovarian): > 100 µM
TGI (OVCAR-3 ovarian): > 100 µM
TGI (SF-295 CNS): > 100 µM
TGI (LOX IMVI melanoma): > 100 µM
TGI (NCI/ADR-RES ovarian): > 100 µM
TGI (RPMI-8226 leukemia): > 100 µM
TGI (SR leukemia): > 100 µM
TGI (SK-MEL-28 melanoma): > 100 µM
TGI (OVCAR-8 ovarian): > 100 µM
TGI (ACHN renal): > 100 µM

COc1cc(/C=C2\C(=O)N(C(=O)Cc3ccccc3)N=C2C)cc(OC)c1OC
TGI (MALME-3M melanoma): > 100 µM
TGI (CAKI-1 renal): > 100 µM
TGI (OVCAR-4 ovarian): > 100 µM
TGI (OVCAR-3 ovarian): > 100 µM
TGI (SF-295 CNS): > 100 µM
TGI (LOX IMVI melanoma): > 100 µM
TGI (RPMI-8226 leukemia): > 100 µM
TGI (SR leukemia): > 100 µM
TGI (SK-MEL-28 melanoma): > 100 µM
TGI (HCC-2998 colon): > 100 µM
TGI (OVCAR-8 ovarian): > 100 µM
TGI (ACHN renal): > 100 µM

CC(C)(O)C(O)COc1c2c(cc3oc(=O)ccc13)OCO2 (stereo not drawn)
TGI (MALME-3M melanoma): > 100 µM
TGI (CAKI-1 renal): > 100 µM
TGI (OVCAR-4 ovarian): > 100 µM
TGI (OVCAR-3 ovarian): > 100 µM
TGI (SF-295 CNS): > 100 µM
TGI (LOX IMVI melanoma): > 100 µM
TGI (RPMI-8226 leukemia): > 100 µM
TGI (SR leukemia): > 100 µM
TGI (SK-MEL-28 melanoma): > 100 µM
TGI (HCC-2998 colon): > 100 µM
TGI (OVCAR-8 ovarian): > 100 µM
TGI (ACHN renal): > 100 µM

NC1N=C(c2ccc(Cl)cc2)C2=C(N1)c1ccccc1CC2 (stereo not drawn)
TGI (PC-3 prostate): > 100 µM
TGI (MALME-3M melanoma): > 100 µM
TGI (DU-145 prostate): > 100 µM
TGI (CAKI-1 renal): > 100 µM
TGI (OVCAR-4 ovarian): 88.2 µM
TGI (OVCAR-3 ovarian): > 100 µM
TGI (SF-295 CNS): > 100 µM
TGI (LOX IMVI melanoma): > 50.9 µM
TGI (NCI/ADR-RES ovarian): > 100 µM
TGI (RPMI-8226 leukemia): 12.2 µM
TGI (SK-MEL-28 melanoma): > 100 µM
TGI (HCC-2998 colon): 18.5 µM
TGI (OVCAR-8 ovarian): > 100 µM
TGI (ACHN renal): > 100 µM

COc1cccc2c1c1ccc3c(c1n2C)C(=O)C=CC3=O
TGI (MALME-3M melanoma): 27.1 µM
TGI (CAKI-1 renal): 11.6 µM
TGI (OVCAR-4 ovarian): 31.8 µM
TGI (OVCAR-3 ovarian): 30.5 µM
TGI (SF-295 CNS): > 100 µM
TGI (LOX IMVI melanoma): 32.2 µM
TGI (RPMI-8226 leukemia): 11.6 µM
TGI (SR leukemia): 6.65 µM
TGI (SK-MEL-28 melanoma): 33.4 µM
TGI (HCC-2998 colon): > 100 µM
TGI (OVCAR-8 ovarian): 29.7 µM
TGI (ACHN renal): 28.6 µM

C=CCOC(=O)CC[C@H](NC(=O)[C@@H](CCC(F)(F)F)Cc1ccc(O)cc1)C(=O)OCC=C
TGI (MALME-3M melanoma): 39.1 µM
TGI (CAKI-1 renal): > 100 µM
TGI (OVCAR-4 ovarian): > 100 µM
TGI (SF-295 CNS): > 100 µM
TGI (LOX IMVI melanoma): > 100 µM
TGI (NCI/ADR-RES ovarian): > 100 µM
TGI (RPMI-8226 leukemia): 74.6 µM
TGI (SR leukemia): > 100 µM
TGI (SK-MEL-28 melanoma): 45.6 µM
TGI (OVCAR-8 ovarian): > 100 µM
TGI (ACHN renal): > 100 µM

COc1ccc(C2SC(N)=Nc3c2c(C)nn3C(=O)c2ccccc2O)cc1OC (stereo not drawn)
TGI (PC-3 prostate): > 10 µM
TGI (MALME-3M melanoma): > 10 µM
TGI (DU-145 prostate): > 10 µM
TGI (CAKI-1 renal): > 10 µM
TGI (OVCAR-4 ovarian): > 10 µM
TGI (OVCAR-3 ovarian): > 10 µM
TGI (SF-295 CNS): > 10 µM
TGI (LOX IMVI melanoma): > 10 µM
TGI (NCI/ADR-RES ovarian): > 10 µM
TGI (RPMI-8226 leukemia): > 10 µM
TGI (SR leukemia): > 10 µM
TGI (SK-MEL-28 melanoma): > 10 µM
TGI (ACHN renal): > 10 µM
